In paper PMC6161288, “Bioavailability of Eurycomanone in Its Pure Form and in a Standardised Eurycoma longifolia Water Extract” (Pharmaceutics, 2018):
Where a name gives a salt, the structure may show the parent alone.

How the values were obtained:
[1] = Lipophilicity, shake flask method with octanol and buffer (pH 7.4); type: physicochemical; conditions: pH 7.4
Description: The lipophilicity of eurycomanone was estimated using the shake flask method with octanol and buffer (pH 7.4). Eurycomanone (5 µL) at 5 mM concentration is added to octanol (495 µL) and DMSO (495 µL) and also into the aqueous and octanol phase in a 1:1 ratio ([…] of octanol phase and 247.5 µL of aqueous phase). The octanol and aqueous phases were prepared using a saturation process, where equal amounts of D-PBS (pH 7.4) and octanol were saturated (300 rpm, room temperature) for 24 h before being separated and kept at room temperature. The prepared mixtures were vortexed and kept on the shaker (300 rpm) at room temperature for 16 h. The mixtures were allowed to stand for 30 min, and 200 µL of solution was transferred and sent for HPLC analysis.

[2] = Caco-2 cell permeability assay; type: in vitro ADME; conditions: human, Caco-2, Efflux Ratio
Description: The Caco-2 assay was carried out after seeding the cells onto the membrane to form a confluent monolayer in 21 days. The media is removed from apical (A) and basolateral (B) chambers and the membrane is washed with HBSS buffer. Eurycomanone (10 µM, 200 µL) was added to the A compartment (which represents the intestinal lumen), and buffer (300 µL) was added to the B compartment (representing the blood), and vice versa. The plate was kept in a shaking incubator (37 °C) for 1 h. The amount of eurycomanone that had permeated across the cells was measured by LC-MS/MS, and the apparent permeability (Papp) values and efflux ratio were calculated. The expression of P-glycoprotein (P-gp) by differentiated Caco-2 cells was confirmed by measuring the Papp value and efflux ratio of vinblastine with and without the presence of a competing P-gp substrate, cyclosporine A. Eurycomanone was also measured with the presence of cyclosporine A to investigate whether eurycomanone may be transported via P-gp transporters.

[3] = Aqueous solubility; type: physicochemical
Description: The aqueous […] was estimated by adding 10 µL of eurycomanone stock solution (10 mM) to 490 µL of aqueous buffer at pH 5.4, pH 7.4 and DMSO in triplicates in deep-well plates. […] The plate was kept on a shaker (300 rpm) at room temperature for 16 h. The plate was then centrifuged at 25 °C, 4000 rpm for 25 min. The supernatant was transferred and analysed using LC-MS/MS.
Peak area 1 = peak area of the compound in 2% DMSO at the different pH levels.
Peak area 2 = peak area of the compound in 100% DMSO.

COCCc1ccc(OCC(O)CNC(C)C)cc1 (stereo not drawn) [metoprolol, metoprolol tartrate]
logD at 16 h [1]: -0.29

CC/C(=C(/CC)c1ccc(O)cc1)c1ccc(O)cc1 [diethylstilbestrol]
logD at 16 h [1]: 3.18

CC[C@]1(O)C[C@@H]2CN(CCc3c([nH]c4ccccc34)[C@@](C(=O)OC)(c3cc4c(cc3OC)N(C)[C@H]3[C@@](O)(C(=O)OC)[C@H](OC(C)=O)[C@]5(CC)C=CCN6CC[C@]43[C@@H]65)C2)C1 [Vinblastine, vinblastine, reference compound]
efflux ratio at 1 h, 10 µM [2]: 14.7

C[C@]12CC[C@@H]3c4ccc(O)cc4CC[C@H]3[C@@H]1C[C@@H](O)[C@@H]2O [Estriol, estriol, reference compound]
logD at 16 h [1]: 2.82 | Aqueous solubility ([3]; pH 5.4): moderate solubility | Aqueous solubility ([3]; pH 7.4): moderate solubility
